Broadly, the IC50 is the concentration that inhibits the measured activity by half. Read a high IC50 as weaker potency in that assay.

IC50 and T-C data for 6 molecules are collected here from ChEMBL document CHEMBL1124338, “Amine peroxides as potential antimalarials” (J Med Chem, 1989).

Assay [1] concerns Plasmodium falciparum. The experiment in a line: In vitro antimalarial activity against Plasmodium falciparum D6. It is filed as functional, organism-based.
The subject of assay [2] is Mus musculus. The experiment in a line: Compound was evaluated for (T-C) survival time of the treated mice (Mus musculus) against Plasmodium berghei at 640 mg/kg. It is filed as functional.
The test system of assay [3] is Plasmodium falciparum. The experiment in a line: In vitro antimalarial activity against Plasmodium falciparum W-2. The format is functional, organism-based.
Assay [4] relates to Mus musculus. The experiment in a line: Compound was evaluated for (T-C) survival time of the treated mice (Mus musculus) against Plasmodium berghei at 40 mg/Kg. It is filed as functional.
In assay [5] the test system is Mus musculus. The experiment in a line: Compound was evaluated for (T-C) survival time of the treated mice (Mus musculus) against Plasmodium berghei at 160 mg/kg. The format is functional.

In the case of `CC(C)(C)OOCN1CCN(c2ccccc2)CC1`, the IC50 in the assay with Plasmodium falciparum [1] was 25.7 µM; with Plasmodium falciparum [3] it was 39.8 µM. The T-C was 0.7 days in the assay on Mus musculus [2], 0.9 days with Mus musculus [4] and 0.7 days with Mus musculus [5].

Take `CC1CCN(COOC(C)(C)C)CC1`: the values for the IC50 with Plasmodium falciparum [1] and in the assay with Plasmodium falciparum [3] were 19.7 µM and 25.2 µM, respectively. Moreover, the T-C in the assay on Mus musculus [2] was determined as 0.7 days; in the assay on Mus musculus [4], 0.3 days; in the assay on Mus musculus [5], 0.1 days.

Regarding `CC(C)(C)OOCN1CCC(c2ccccc2)CC1`, the IC50 was 27.3 µM in the assay on Plasmodium falciparum [1] and 26.9 µM in the assay on Plasmodium falciparum [3]. The T-C was 0.8 days in the assay with Mus musculus [2], 0.3 days with Mus musculus [4] and 0.5 days with Mus musculus [5].

Turning to `CN(COOC(C)(C)C)C1CCCCC1`, the IC50 in the assay with Plasmodium falciparum [1] worked out at 25.1 µM; in the assay on Plasmodium falciparum [3], 26.6 µM. The values for the T-C in the assay with Mus musculus [2], with Mus musculus [4] and in the assay with Mus musculus [5] were 0.7 days, 0.5 days and 1.3 days, respectively.

As to `CCN(COOC(C)(C)C)c1ccccc1`, the results for the IC50 in the assay with Plasmodium falciparum [1] and with Plasmodium falciparum [3] were 54 µM and 39.4 µM, respectively. Moreover, the results for the T-C in the assay on Mus musculus [2], with Mus musculus [4] and with Mus musculus [5] were 1.3 days, 0.5 days and 0.3 days, respectively.

Regarding `CC(C)(C)OO` [TERT-BUTYL HYDROPEROXIDE], the results for the half-inhibitory concentration (IC50) in the assay with Plasmodium falciparum [1] and in the assay on Plasmodium falciparum [3] were 203 µM and 240 µM, respectively. In addition, the T-C was 0.7 days with Mus musculus [2], 0.1 days in the assay on Mus musculus [4] and 0.3 days in the assay on Mus musculus [5].
